ChEMBL document CHEMBL1201862, “PubChem BioAssay data set” (2004)
Active and inactive are the calls of the source.

Tests used:
Protein RecA = target: T1, Protein RecA (Mycobacterium tuberculosis, UniProt P9WHJ3); assay: Fluorescence Cell-Free Homogeneous Dose Retest to Identify Inhibitors of RecA-Intein Splicing Activity. [Related pubchem assays (depositor defined):AID2097, AID2223, AID489010, AID492950]; assay type: functional
T1 sequence (P9WHJ3 whole entry): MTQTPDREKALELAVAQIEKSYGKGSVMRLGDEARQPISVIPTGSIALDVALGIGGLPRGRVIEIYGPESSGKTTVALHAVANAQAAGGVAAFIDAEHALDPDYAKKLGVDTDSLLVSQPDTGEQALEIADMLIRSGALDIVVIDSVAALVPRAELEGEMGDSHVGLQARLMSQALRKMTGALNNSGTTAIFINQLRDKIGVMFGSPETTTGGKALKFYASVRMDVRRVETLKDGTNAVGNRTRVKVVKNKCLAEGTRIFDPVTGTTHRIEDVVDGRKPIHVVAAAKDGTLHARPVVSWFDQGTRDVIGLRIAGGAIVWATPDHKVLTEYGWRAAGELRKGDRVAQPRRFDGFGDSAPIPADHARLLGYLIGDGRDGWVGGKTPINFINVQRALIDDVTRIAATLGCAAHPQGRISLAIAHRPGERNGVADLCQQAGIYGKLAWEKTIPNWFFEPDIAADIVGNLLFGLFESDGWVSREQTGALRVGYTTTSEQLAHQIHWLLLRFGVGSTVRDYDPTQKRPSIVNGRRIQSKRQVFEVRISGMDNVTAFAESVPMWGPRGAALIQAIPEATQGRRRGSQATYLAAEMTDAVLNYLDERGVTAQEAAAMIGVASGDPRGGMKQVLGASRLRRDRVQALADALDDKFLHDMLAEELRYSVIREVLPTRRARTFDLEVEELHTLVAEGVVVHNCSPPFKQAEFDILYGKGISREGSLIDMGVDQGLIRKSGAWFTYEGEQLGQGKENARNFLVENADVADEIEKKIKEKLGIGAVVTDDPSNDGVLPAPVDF

[1] = target: T2, Replicative DNA helicase DnaB (Mycobacterium tuberculosis, UniProt P9WMR3); assay: DnaB intein splicing inhibitors, dose response, biochemical, cell-free fluorescence (AID 449749); assay type: functional
T2 sequence (P9WMR3 whole entry): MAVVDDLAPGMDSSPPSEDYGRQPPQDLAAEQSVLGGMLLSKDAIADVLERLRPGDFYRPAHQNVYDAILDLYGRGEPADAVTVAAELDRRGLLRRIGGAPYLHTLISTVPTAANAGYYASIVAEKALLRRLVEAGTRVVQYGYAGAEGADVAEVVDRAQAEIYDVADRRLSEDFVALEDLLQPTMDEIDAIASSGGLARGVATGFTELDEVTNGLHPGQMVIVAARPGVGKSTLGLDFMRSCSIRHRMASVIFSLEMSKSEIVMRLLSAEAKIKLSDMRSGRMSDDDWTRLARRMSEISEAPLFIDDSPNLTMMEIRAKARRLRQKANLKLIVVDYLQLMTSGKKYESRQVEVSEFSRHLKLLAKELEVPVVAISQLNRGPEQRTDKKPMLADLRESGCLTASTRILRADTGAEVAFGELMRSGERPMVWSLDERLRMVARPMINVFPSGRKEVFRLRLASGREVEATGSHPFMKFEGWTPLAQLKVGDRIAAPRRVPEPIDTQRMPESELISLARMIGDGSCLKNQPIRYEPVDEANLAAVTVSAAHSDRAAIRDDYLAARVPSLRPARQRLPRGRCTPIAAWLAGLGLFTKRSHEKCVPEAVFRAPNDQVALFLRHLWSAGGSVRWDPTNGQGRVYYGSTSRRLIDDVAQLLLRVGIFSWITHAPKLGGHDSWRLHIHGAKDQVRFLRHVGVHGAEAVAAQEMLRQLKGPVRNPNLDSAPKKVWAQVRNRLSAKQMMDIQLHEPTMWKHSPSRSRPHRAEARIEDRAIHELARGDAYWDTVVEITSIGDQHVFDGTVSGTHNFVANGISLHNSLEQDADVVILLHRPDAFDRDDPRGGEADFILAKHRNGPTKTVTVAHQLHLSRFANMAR

Hexokinase HKDC1 = Hexokinase HKDC1 (Homo sapiens, UniProt Q2TB90); assay: inhibition of HKDC1 glucose phosphorylation – biochemical, W721R variant, dose response (AID 504729); assay type: functional
[2] = target: Lysosomal acid glucosylceramidase (Homo sapiens, UniProt P04062); assay: Dose response cell-based high throughput screening assay to identify enhancers of beta-glucosidase activity. [Related pubchem assays: 784 ]; assay type: functional
Vero = assay: cells; assay type: functional, cell-based; conditions: Chlorocebus sabaeus
[3] = Luminescence Cell-Based Dose Response HTS to Identify Inhibitors of 5'UTR Stem-Loop Driven Prion Protein mRNA Translation in H4 Neuroglioblastoma Cells. [Related pubchem assays: 1827 (Project Summary), 1813 (Primary HTS)]; assay type: functional
[4] = alpha-synuclein stem-loop luciferase translation blockers – H4 neuroglioma cells, luminescence, confirmation (AID 1988); assay type: functional, cell-based
[5] = luciferase reporter signal suppression in cells – H4 neuroglioma cells, luminescence, dose response (AID 1990); assay type: functional, cell-based
[6] = target: Scavenger receptor class B member 1 (Mus musculus, UniProt Q61009); assay: mouse SR-BI DiI-HDL uptake blockers – ldlA[mSR-BI] cells, fluorescence, cherry pick, dose response (AID 493194); assay type: functional, cell-based;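 note: cellular uptake of fluorescent DiI-labeled HDL measured as cell fluorescence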
[7] = target: Cyclin-dependent kinase 5/CDK5 activator 1 (Homo sapiens, UniProt Q00535); assay: blockade of human CDK5 activity – biochemical, cherry-picked samples, set 2, dose response (AID 504545)
[8] = Counterscreen for activators of the function of SWI/SNF related, matrix associated, actin dependent regulator of chromatin, subfamily a, member 2 (SMARCA2, BRM): Luminescence-based cell-based high throughput dose response assay to identify non-selective compounds using the VP16 reporter assay.; assay type: functional
[9] = target: SWI/SNF-related matrix-associated actin-dependent regulator of chromatin subfamily A member 2 (Homo sapiens, UniProt P51531); assay: Luminescence-based cell-based high throughput dose response assay to identify activators of the function of SWI/SNF related, matrix associated, actin dependent regulator of chromatin, subfamily a, member 2 (SMARCA2, BRM).; assay type: functional
[10] = target: T3, Voltage-gated N-type calcium channel alpha-1B subunit/Amyloid beta A4 precursor protein-binding family A member 1 (Homo sapiens, UniProt Q00975+Q02410); assay: disruptors of Mint-PDZ/N-type channel peptide interaction – biochemical, HTRF, set 2, SAR follow-up (AID 434980); assay type: functional
[11] = target: T3, Voltage-gated N-type calcium channel alpha-1B subunit/Amyloid beta A4 precursor protein-binding family A member 1; assay: disruptors of Mint-PDZ/N-type channel peptide interaction – biochemical, HTRF, SAR follow-up (AID 2489); assay type: functional
Cytochrome P450 3A4 = Cytochrome P450 3A4 (Homo sapiens, UniProt P08684); conditions: Potency;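 note: confirmatory qHTS run detecting inhibitors and substrates of CYP3A4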
Cytochrome P450 2D6 = Cytochrome P450 2D6 (Homo sapiens, UniProt P10635); assay: qHTS Assay for Inhibitors and Substrates of Cytochrome P450 2D6. [Related pubchem assays: 410 ]; assay type: ADME; conditions: read-out: Potency
Cytochrome P450 2C9 = Cytochrome P450 2C9 (Homo sapiens, UniProt P11712); conditions: Potency
[12] = target: Dual specificity protein phosphatase 3 (Homo sapiens, UniProt P51452); assay: inhibition constants for human DUSP3 – biochemical, colorimetric, SAR follow-up (AID 2004)
[13] = target: Neurotensin receptor type 1 (Homo sapiens, UniProt P30989); assay type: functional;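 note: Image-based confirmatory dose-response assay measuring agonist activity at NTR1; NTR1-expressing U2OS osteosarcoma cells imaged for beta-arrestin GFP spot formation; agonist potency where compounds increase beta-arrestin recruitment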
Oxytocin receptor = Oxytocin receptor (Homo sapiens, UniProt P30559); assay: Fluorescence-based cell-based high throughput dose response assay for agonists of the Oxytocin Receptor (OXTR). [Related pubchem assays: 2435 (Primary screen (OXTR agonists in singlicate)), 434991 (Counterscreen (V1R agonists in triplicate)), 2482 (Summary (OXTR agonists)), 434963 (Confirmation screen (OXTR agonists in triplicate))]; assay type: functional
Vasopressin V1a receptor = Vasopressin V1a receptor (Homo sapiens, UniProt P37288); assay: Counterscreen for Oxytocin Receptor (OXTR) agonists: Fluorescence-based cell-based high throughput dose response assay to identify agonists of the vasopressin 1 receptor (V1R). [Related pubchem assays: 2435 (Primary screen (OXTR agonists in singlicate)), 434991 (Counterscreen (V1R agonists in triplicate)), 2482 (Summary (OXTR agonists)) …; assay type: functional
[14] = target: T4, Corticotropin-releasing factor receptor 2/Corticotropin-releasing factor-binding protein (Homo sapiens, UniProt P24387+Q13324); assay: activators of CRF receptor 2 with binding protein – uHTS hits, confirmation (AID 602473); assay type: functional; conditions: read-out: EC50_Mean
T4 sequence (Q13324 whole entry): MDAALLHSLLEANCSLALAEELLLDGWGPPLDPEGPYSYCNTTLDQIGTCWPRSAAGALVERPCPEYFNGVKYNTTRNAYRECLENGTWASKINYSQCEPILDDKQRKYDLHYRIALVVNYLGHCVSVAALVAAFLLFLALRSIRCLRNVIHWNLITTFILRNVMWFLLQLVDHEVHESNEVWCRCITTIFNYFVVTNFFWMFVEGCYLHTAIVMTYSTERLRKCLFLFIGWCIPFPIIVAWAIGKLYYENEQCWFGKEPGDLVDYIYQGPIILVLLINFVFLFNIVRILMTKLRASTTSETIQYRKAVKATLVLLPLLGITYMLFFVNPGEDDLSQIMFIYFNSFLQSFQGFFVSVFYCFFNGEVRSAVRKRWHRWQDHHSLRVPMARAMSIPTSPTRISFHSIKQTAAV
T4 sequence (P24387 whole entry): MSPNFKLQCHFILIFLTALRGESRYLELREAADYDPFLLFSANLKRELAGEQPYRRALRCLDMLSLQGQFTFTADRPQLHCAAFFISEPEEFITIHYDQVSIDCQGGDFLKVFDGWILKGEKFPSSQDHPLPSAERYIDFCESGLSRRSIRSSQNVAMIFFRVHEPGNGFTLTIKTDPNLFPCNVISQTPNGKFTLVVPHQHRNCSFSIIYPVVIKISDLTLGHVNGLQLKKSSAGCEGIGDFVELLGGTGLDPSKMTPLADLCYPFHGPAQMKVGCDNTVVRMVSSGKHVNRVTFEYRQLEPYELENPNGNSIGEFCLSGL

Vibrio harveyi = assay: Quorum Sensing, LuxS, LuxPQ Measured in Microorganism System Using Plate Reader - 2035-01_Inhibitor_DoseNoFile_DryPowder_Activity. [Related pubchem assays (depositor defined):AID2106]; assay type: functional, organism-based
[15] = target: Acyl-homoserine lactone acylase PvdQ (Pseudomonas aeruginosa (strain LESB58), UniProt Q9I194); assay: PvdQ acylase enzyme activity blockers – biochemical, fluorescence, plate reader and imaging, cherry-picks, dose response (AID 493231)
Wee1-like protein kinase = Wee1-like protein kinase (Homo sapiens, UniProt P30291); assay: HeLa cell cycle G2/M accumulation – FACS, mechanism study for Wee1 degradation inhibitor project, late-stage follow-up, panel member Wee1 Degradation (AID 2088)
[16] = target: G2/mitotic-specific cyclin-B1 (Homo sapiens, UniProt P14635); assay: HeLa cell cycle G2/M accumulation – FACS, mechanism study for Wee1 degradation inhibitor project, late-stage follow-up, panel member Cyclin B Degradation (AID 2088)
[17] = target: Melanin-concentrating hormone receptor 1 (Homo sapiens, UniProt Q99705); assay: Late-stage fluorescence-based counterscreen for antagonists of the G-protein coupled receptor 7 (GPR7): cell-based dose response assay to identify antagonists of the melanin-concentrating hormone receptor 1 (MCHR1). [Related pubchem assays (depositor defined):AID1861, AID1880, AID1952, AID2148, AID2251, AID2257, AID485339]; assay type: functional;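 note: stimulated with 30 nM MCH peptide agonist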

T3 sequence (Q00975 whole entry): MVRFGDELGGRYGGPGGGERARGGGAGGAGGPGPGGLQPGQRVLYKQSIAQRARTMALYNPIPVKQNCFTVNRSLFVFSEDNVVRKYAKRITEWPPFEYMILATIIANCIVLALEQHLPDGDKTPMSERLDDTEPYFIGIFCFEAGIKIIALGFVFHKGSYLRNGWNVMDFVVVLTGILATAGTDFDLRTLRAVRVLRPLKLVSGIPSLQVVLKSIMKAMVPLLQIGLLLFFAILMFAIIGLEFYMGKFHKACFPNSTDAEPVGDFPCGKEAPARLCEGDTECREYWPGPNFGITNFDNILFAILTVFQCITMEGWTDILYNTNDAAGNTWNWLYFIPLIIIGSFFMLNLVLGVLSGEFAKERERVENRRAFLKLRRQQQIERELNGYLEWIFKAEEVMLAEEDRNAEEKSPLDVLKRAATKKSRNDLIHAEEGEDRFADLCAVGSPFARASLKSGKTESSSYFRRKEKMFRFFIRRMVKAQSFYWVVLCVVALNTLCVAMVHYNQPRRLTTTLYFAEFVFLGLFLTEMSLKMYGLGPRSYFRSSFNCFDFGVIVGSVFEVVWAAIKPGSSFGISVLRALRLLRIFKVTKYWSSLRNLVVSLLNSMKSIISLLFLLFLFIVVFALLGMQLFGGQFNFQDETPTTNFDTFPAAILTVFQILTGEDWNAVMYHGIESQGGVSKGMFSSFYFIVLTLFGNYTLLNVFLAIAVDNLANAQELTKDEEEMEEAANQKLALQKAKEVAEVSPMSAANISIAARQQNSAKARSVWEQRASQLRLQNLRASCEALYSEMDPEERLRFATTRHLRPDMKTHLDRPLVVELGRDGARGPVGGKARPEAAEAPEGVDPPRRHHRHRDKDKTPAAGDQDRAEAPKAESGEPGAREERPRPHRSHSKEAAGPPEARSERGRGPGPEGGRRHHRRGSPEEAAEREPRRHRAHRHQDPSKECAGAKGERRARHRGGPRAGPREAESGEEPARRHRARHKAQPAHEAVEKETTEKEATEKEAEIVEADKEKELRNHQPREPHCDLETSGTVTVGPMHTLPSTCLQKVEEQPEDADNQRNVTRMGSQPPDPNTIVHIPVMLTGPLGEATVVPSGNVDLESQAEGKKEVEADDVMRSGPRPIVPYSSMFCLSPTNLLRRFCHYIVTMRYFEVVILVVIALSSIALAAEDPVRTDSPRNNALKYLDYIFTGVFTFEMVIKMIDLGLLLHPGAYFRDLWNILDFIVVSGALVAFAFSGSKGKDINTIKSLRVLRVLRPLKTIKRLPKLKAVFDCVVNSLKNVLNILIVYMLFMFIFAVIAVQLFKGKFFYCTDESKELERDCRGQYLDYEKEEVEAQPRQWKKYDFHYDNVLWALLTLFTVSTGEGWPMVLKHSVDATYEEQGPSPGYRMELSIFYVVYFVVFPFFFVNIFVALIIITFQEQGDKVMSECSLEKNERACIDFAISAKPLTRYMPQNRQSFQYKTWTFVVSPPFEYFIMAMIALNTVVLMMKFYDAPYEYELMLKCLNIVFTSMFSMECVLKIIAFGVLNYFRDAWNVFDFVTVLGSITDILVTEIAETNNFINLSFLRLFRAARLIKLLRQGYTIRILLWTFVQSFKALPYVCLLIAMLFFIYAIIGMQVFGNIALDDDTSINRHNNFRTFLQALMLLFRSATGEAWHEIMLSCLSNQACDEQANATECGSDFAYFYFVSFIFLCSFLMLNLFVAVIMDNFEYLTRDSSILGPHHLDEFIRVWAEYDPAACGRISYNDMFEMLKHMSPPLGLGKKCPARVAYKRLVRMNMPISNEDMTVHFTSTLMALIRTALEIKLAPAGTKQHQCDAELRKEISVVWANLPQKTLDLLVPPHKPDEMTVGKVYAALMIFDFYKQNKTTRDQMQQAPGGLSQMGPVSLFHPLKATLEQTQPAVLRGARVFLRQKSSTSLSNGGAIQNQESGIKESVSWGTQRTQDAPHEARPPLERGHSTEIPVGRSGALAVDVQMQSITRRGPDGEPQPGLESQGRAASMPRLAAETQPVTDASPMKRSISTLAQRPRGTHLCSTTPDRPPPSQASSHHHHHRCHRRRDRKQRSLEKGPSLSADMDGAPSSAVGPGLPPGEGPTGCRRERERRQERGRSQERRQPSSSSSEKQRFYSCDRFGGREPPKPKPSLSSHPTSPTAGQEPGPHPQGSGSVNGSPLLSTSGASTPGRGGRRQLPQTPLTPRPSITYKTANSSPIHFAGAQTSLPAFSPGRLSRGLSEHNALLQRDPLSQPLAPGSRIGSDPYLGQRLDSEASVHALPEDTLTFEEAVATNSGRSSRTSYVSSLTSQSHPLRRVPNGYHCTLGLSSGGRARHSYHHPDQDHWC
T3 sequence (Q02410 whole entry): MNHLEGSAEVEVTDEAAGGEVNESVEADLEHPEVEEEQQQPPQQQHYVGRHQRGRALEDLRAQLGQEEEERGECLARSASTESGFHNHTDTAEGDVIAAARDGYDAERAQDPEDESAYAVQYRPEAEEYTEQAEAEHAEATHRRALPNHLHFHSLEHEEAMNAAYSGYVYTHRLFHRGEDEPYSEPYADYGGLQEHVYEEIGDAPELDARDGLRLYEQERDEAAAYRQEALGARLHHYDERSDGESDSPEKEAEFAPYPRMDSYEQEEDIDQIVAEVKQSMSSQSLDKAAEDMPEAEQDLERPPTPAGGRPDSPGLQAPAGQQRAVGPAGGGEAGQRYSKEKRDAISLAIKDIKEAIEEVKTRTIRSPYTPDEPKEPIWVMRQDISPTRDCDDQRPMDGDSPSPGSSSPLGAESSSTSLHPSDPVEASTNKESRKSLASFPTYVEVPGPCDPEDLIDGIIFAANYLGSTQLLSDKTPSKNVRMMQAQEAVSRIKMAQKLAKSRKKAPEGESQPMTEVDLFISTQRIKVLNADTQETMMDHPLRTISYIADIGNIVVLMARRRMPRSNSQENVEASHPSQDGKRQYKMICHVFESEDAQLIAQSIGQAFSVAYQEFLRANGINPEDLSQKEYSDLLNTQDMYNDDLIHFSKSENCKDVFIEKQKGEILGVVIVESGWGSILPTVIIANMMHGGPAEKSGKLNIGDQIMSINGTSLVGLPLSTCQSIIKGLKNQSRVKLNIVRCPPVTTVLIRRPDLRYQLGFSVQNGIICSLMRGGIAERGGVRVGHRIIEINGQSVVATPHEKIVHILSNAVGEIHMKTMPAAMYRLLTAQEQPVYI
Scavenger receptor class B member 1, sequence (Q61009 whole entry): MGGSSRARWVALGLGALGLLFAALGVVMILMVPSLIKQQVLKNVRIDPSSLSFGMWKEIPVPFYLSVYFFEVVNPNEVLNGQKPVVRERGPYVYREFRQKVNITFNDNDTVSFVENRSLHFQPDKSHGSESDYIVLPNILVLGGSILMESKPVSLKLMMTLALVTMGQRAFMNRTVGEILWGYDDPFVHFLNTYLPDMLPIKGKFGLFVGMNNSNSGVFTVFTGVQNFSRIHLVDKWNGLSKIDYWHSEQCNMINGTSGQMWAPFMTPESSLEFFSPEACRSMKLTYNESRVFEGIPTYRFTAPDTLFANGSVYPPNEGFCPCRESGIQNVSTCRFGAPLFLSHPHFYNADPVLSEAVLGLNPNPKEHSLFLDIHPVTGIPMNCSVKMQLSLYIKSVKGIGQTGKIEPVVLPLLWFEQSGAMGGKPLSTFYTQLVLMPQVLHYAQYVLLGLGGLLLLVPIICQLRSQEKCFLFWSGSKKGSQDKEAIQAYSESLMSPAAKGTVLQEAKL
Acyl-homoserine lactone acylase PvdQ, sequence (Q9I194 24-193 limits assumed): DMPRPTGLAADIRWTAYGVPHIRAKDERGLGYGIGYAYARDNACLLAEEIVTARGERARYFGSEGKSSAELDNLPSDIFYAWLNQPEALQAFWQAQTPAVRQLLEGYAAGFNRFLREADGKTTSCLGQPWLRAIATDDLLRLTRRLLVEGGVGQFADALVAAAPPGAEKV
Acyl-homoserine lactone acylase PvdQ, sequence (Q9I194 217-762 limits assumed): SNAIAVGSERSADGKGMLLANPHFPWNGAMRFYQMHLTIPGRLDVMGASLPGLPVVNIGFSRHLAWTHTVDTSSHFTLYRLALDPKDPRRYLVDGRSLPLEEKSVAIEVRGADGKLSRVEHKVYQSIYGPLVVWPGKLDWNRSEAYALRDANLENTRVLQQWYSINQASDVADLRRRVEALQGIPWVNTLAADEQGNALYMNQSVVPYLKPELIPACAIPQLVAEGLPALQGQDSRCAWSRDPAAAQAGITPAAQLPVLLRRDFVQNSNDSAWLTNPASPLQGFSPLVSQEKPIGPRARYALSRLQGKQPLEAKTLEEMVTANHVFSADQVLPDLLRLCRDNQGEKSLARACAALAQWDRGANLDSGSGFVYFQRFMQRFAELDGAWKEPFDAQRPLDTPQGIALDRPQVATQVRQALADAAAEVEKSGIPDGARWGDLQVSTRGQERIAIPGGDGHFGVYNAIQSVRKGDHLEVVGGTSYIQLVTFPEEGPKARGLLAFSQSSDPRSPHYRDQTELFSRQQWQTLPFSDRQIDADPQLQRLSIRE
Neurotensin receptor type 1, sequence (P30989 whole entry): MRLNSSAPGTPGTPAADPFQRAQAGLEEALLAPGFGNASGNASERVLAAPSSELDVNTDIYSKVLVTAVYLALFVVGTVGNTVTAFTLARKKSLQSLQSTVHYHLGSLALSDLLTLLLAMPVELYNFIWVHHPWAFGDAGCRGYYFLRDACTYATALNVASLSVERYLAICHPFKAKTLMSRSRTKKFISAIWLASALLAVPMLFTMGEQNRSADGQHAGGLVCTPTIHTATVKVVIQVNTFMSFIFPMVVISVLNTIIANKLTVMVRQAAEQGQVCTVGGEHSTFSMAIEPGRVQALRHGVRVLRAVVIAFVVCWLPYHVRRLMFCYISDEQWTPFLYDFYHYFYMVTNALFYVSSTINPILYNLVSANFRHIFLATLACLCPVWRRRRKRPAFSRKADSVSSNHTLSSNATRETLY
Dual specificity protein phosphatase 3, sequence (P51452 whole entry): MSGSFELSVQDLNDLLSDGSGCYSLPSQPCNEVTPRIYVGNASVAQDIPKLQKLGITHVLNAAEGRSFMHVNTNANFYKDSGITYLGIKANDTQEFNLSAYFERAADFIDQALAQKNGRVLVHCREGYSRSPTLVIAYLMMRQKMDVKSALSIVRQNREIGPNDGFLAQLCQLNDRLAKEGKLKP

O=c1c2ccccc2nc(/C=C/c2cccnc2)n1CCc1ccccc1
EC50 (Protein RecA): 12 µM (active) | AC50 [1]: 60.6 µM (active) | IC50 (Hexokinase HKDC1): 17.5 µM (active)

Cc1cc(-c2nnc(SCc3cccnc3)o2)no1
EC50 [2]: > 50 µM (not active)

Cc1cc(SC(C)C(=O)Nc2ncc(Cl)cc2Cl)nc2ccccc12 (configuration not stated)
IC50 (Vero): 19.5 µM (active) | EC50 [3]: > 120 µM (not active) | EC50 [4]: 15.1 µM (active) | EC50 [5]: > 120 µM (not active) | AC50 [6]: 0.633 µM (active)

CC(C)[C@H](CO)Nc1nc(NCc2ccc(S(N)(=O)=O)cc2)c2ncn(C(C)C)c2n1
AC50 [7]: 1.93 µM (active) | EC50 [8]: > 91.2 µM (inactive) | EC50 [9]: > 91.2 µM (inactive)

COc1ccccc1CNC(=O)COC(=O)c1cccc2ccccc12
IC50 [10]: 19.4 µM (active) | IC50 [11]: > 56.8 µM (inactive)

CCCCCCCC1=Cc2ccccc2C(CC(C)=O)N1C(=O)OC (configuration not stated)
AC50 (Cytochrome P450 3A4): 3.16 µM (inconclusive) | AC50 (Cytochrome P450 2D6): 3.98 µM (inconclusive) | AC50 (Cytochrome P450 2C9): 6.31 µM (inconclusive)

COC(=O)c1ccc(COc2cc3oc(=O)cc(-c4ccccc4)c3cc2Cl)cc1
Ki [12]: 28.9 µM (inactive)

Cc1cc(C)n(-c2nc(N(c3ccccc3)c3ccccc3)nc(-n3nc(C)cc3C)n2)n1
EC50 [13]: 6.21 µM (active)

CC(=O)c1c(C)[nH]c(C(=O)CN2C(=O)NC(C)(c3ccc(C)cc3)C2=O)c1C (configuration not stated)
EC50 (Oxytocin receptor): > 29.9 µM (not active) | EC50 (Vasopressin V1a receptor): > 29.9 µM (not active) | EC50 [14]: 11.6 µM (active)

CN(C)S(=O)(=O)c1ccc(NC(=S)NC(=O)Cc2ccccc2)cc1
AC50 (Vibrio harveyi): 66.4 µM (active)

CCOC(=O)CC(C#N)c1cn(C)c2ccccc12 (configuration not stated)
AC50 [15]: 7.18 µM (active)

Cc1cc(NC(=O)c2cccc(F)c2)n(-c2nc(=O)cc(C)[nH]2)n1
EC50 (Wee1-like protein kinase): > 49.7 µM (inactive) | EC50 [16]: > 49.7 µM (inactive)

CCc1ccc(-n2ncc(Cl)c(Oc3ccc(OC)cc3)c2=O)cc1
IC50 [17]: 3.9 µM (active)
